ChEMBL document CHEMBL3600310 (J Med Chem, 2015)

Tests used:
Assay type in all cases: functional, cell-based
HCT-116 = assay: Cytotoxicity against human HCT116 cells after 72 hrs by MTT assay; conditions: HCT-116, 72 h
MDA-MB-435 = assay: Cytotoxicity against human MDA-MB-435 cells after 72 hrs by MTT assay; conditions: MDA-MB-435, 72 h
A549 = assay: Cytotoxicity against human A549 cells after 72 hrs by MTT assay; conditions: A549, 72 h

Row | Compound | IC50 (HCT-116) | IC50 (MDA-MB-435) | IC50 (A549)
1 | CCCN(CCC)c1ccc2c(c1)C(=O)N1CCc3c([nH]c4ccccc34)C1O2 (stereo not drawn) | 2.3 µM | > 200 µM | > 200 µM
2 | O=C1c2ccc(Cl)cc2OC2c3[nH]c4ccc(O)cc4c3CCN12 (stereo not drawn) | 18.7 µM | 7.1 µM | 10.6 µM
3 | COc1ccc2c(c1)C(=O)N1CCc3c([nH]c4ccccc34)C1O2 (stereo not drawn) | 25.6 µM | > 200 µM | 14.8 µM
4 | Cc1cccc2c1C(=S)N1CCc3c([nH]c4ccccc34)C1O2 (stereo not drawn) | 3.8 µM | 4.5 µM | 11 µM
5 | O=C1c2ccc(C(F)(F)F)cc2OC2c3[nH]c4ccc(O)cc4c3CCN12 (stereo not drawn) | 10.9 µM | 10.5 µM | 14.7 µM
6 | COc1ccc2[nH]c3c(c2c1)CCN1C(=O)c2ccc(C)cc2OC31 (stereo not drawn) | > 200 µM | 198 µM | > 200 µM
7 | COc1ccc2c(c1)OC1c3[nH]c4ccc(OC)cc4c3CCN1C2=O (stereo not drawn) | > 200 µM | > 200 µM | > 200 µM
8 | CN1c2ccccc2C(=O)N2CCc3c([nH]c4ccccc34)[C@@H]21 [EVODIAMINE] | > 200 µM | 22.1 µM | > 200 µM
9 | COc1ccc2[nH]c3c(c2c1)CCN1C(=O)c2cscc2N(C)C31 (stereo not drawn) | 94.9 µM | 49 µM | 32.3 µM
10 | CN1c2ccn(C)c2C(=O)N2CCc3c([nH]c4ccccc34)C21 (stereo not drawn) | 76.5 µM | 207 µM | > 200 µM
11 | COc1ccc2[nH]c3c(c2c1)CCN1C(=O)c2cc(N)ccc2OC31 (stereo not drawn) | 42.8 µM | 132 µM | 114 µM
12 | CN1c2ccoc2C(=O)N2CCc3c([nH]c4ccccc34)C21 (stereo not drawn) | 178 µM | 182 µM | > 200 µM
13 | O=C1c2ccc(F)cc2OC2c3[nH]c4ccccc4c3CCN12 (stereo not drawn) | 6.7 µM | 171 µM | 95 µM
14 | COc1ccc2[nH]c3c(c2c1)CCN1C(=O)c2sccc2N(C)C31 (stereo not drawn) | > 200 µM | > 200 µM | > 200 µM
15 | O=C1c2cc(Cl)cc(Cl)c2OC2c3[nH]c4ccc(O)cc4c3CCN12 (stereo not drawn) | 7 µM | 0.3 µM | 8.6 µM
16 | CC(C)C(=O)Nc1ccc2c(c1)C(=O)N1CCc3c([nH]c4ccccc34)C1O2 (stereo not drawn) | 9.4 µM | 11.7 µM | 28.4 µM
17 | COc1ccc2[nH]c3c(c2c1)CCN1C(=O)c2cc(Br)ccc2OC31 (stereo not drawn) | 5.4 µM | 7.1 µM | 2.6 µM
18 | O=C1c2cccc(O)c2OC2c3[nH]c4ccccc4c3CCN12 (stereo not drawn) | > 200 µM | 42.3 µM | 103 µM
19 | COc1ccc2c(c1)OC1c3[nH]c4ccccc4c3CCN1C2=O (stereo not drawn) | 71.2 µM | 52.3 µM | 174 µM
20 | CN1c2ccsc2C(=O)N2CCc3c([nH]c4ccccc34)C21 (stereo not drawn) | 192 µM | > 200 µM | 111 µM
21 | O=C1c2cc(F)ccc2OC2c3[nH]c4ccccc4c3CCN12 (stereo not drawn) | 5.8 µM | 46.1 µM | 6.6 µM
22 | CCc1c2c(nc3ccc(OC(=O)N4CCC(N5CCCCC5)CC4)cc13)-c1cc3c(c(=O)n1C2)COC(=O)[C@]3(O)CC [IRINOTECAN] | 18.6 µM | 6.3 µM | 20.1 µM
23 | O=C1c2cc3ccccc3cc2OC2c3[nH]c4ccc(O)cc4c3CCN12 (stereo not drawn) | 5.1 µM | 5.1 µM | 5.6 µM
24 | Cc1ccc2c(c1)OC1c3[nH]c4ccccc4c3CCN1C2=O (stereo not drawn) | 25.5 µM | 97.2 µM | 62.5 µM

Row | Compound | IC50 (HCT-116) | IC50 (MDA-MB-435) | IC50 (A549)
25 | O=C1c2cc(Br)ccc2OC2c3[nH]c4ccccc4c3CCN12 (stereo not drawn) | 13.8 µM | 3.7 µM | 1.6 µM
26 | COc1ccc2[nH]c3c(c2c1)CCN1C(=O)c2c(ccc4ccccc24)OC31 (stereo not drawn) | > 200 µM | 31 µM | > 200 µM
27 | CCCNc1ccc2c(c1)C(=O)N1CCc3c([nH]c4ccccc34)C1O2 (stereo not drawn) | 16.7 µM | > 200 µM | 173 µM
28 | O=C1c2c(ccc3ccccc23)OC2c3[nH]c4ccc(O)cc4c3CCN12 (stereo not drawn) | 6.3 µM | 2.7 µM | 3.1 µM
29 | COc1ccc2[nH]c3c(c2c1)CCN1C(=O)c2ccc(Cl)cc2OC31 (stereo not drawn) | 8.7 µM | 4.6 µM | 3.8 µM
30 | O=C1c2cc([N+](=O)[O-])ccc2OC2c3[nH]c4ccccc4c3CCN12 (stereo not drawn) | > 200 µM | > 200 µM | > 200 µM
31 | O=C1c2ccc(O)cc2OC2c3[nH]c4ccccc4c3CCN12 (stereo not drawn) | 54.1 µM | 29.3 µM | 17.5 µM
32 | CN1c2ccccc2C(=O)N2CCCc3c(oc4ccc(O)cc34)C21 (stereo not drawn) | > 200 µM | > 200 µM | > 200 µM
33 | O=C1c2ccccc2OC2c3[nH]c4ccc(Cl)cc4c3CCN12 (stereo not drawn) | 2.1 µM | 5.59 µM | 3.49 µM
34 | COc1ccc2[nH]c3c(c2c1)CCN1C(=O)c2cc(F)ccc2OC31 (stereo not drawn) | 25.1 µM | 36.4 µM | 13.1 µM
35 | O=C1c2cc(Cl)ccc2OC2c3[nH]c4ccccc4c3CCN12 (stereo not drawn) | 1.4 µM | 0.6 µM | 0.05 µM
36 | CN1c2cscc2C(=O)N2CCc3c([nH]c4ccc(O)cc34)C21 (stereo not drawn) | 4.8 µM | 32.3 µM | 3.9 µM
37 | COc1ccc2[nH]c3c(c2c1)CCN1C(=O)c2ccsc2N(C)C31 (stereo not drawn) | 14.1 µM | 36.2 µM | 26.9 µM
38 | O=C1c2c(F)cccc2OC2c3[nH]c4ccccc4c3CCN12 (stereo not drawn) | 31 µM | 71 µM | 35.1 µM
39 | CN1c2ccccc2C(=O)N2CCCc3c([nH]c4ccc(O)cc34)C21 (stereo not drawn) | 59.8 µM | 69.2 µM | 32.4 µM
40 | Cc1cccc2c1C(=O)N1CCc3c([nH]c4ccc(O)cc34)C1O2 (stereo not drawn) | < 0.003 µM | < 0.003 µM | 1.8 µM
41 | COc1ccc2[nH]c3c(c2c1)CCN1C(=O)c2cc([N+](=O)[O-])ccc2OC31 (stereo not drawn) | > 200 µM | > 200 µM | > 200 µM
42 | COc1ccc2[nH]c3c(c2c1)CCN1C(=O)c2cc4ccccc4cc2OC31 (stereo not drawn) | 58 µM | 34.8 µM | > 200 µM
43 | O=C1c2ccc(C(F)(F)F)cc2OC2c3[nH]c4ccccc4c3CCN12 (stereo not drawn) | 23.3 µM | 21.9 µM | 25.8 µM
44 | COc1ccc2[nH]c3c(c2c1)CCN1C(=O)c2cc(Cl)ccc2OC31 (stereo not drawn) | 1 µM | 2.4 µM | 0.05 µM
45 | COc1ccc2[nH]c3c(c2c1)CCN1C(=O)c2ccc(F)cc2OC31 (stereo not drawn) | 37.1 µM | 157 µM | > 200 µM
46 | Nc1ccc2c(c1)C(=O)N1CCc3c([nH]c4ccccc34)C1O2 (stereo not drawn) | 2.3 µM | 9.1 µM | 2.7 µM
47 | O=C1c2cccc(O)c2OC2c3[nH]c4ccc(O)cc4c3CCN12 (stereo not drawn) | 53.4 µM | 66.2 µM | > 200 µM
48 | CN1c2ccn(C)c2C(=O)N2CCc3c([nH]c4ccc(O)cc34)C21 (stereo not drawn) | 15.4 µM | 11.7 µM | 5 µM

Row | Compound | IC50 (HCT-116) | IC50 (MDA-MB-435) | IC50 (A549)
49 | Cc1ccc2c(c1)OC1c3[nH]c4ccccc4c3CCN1C2=S (stereo not drawn) | 44.4 µM | 60.3 µM | 65.2 µM
50 | CCNc1ccc2c(c1)C(=O)N1CCc3c([nH]c4ccccc34)C1O2 (stereo not drawn) | 39.4 µM | > 200 µM | > 200 µM
51 | O=C1c2cc(O)ccc2OC2c3[nH]c4ccccc4c3CCN12 (stereo not drawn) | 1.9 µM | 11.5 µM | 16.2 µM
52 | O=C1c2cc(Cl)cc(Cl)c2OC2c3[nH]c4ccccc4c3CCN12 (stereo not drawn) | 6.7 µM | 14.2 µM | 1.8 µM
53 | COc1cccc2c1OC1c3[nH]c4ccccc4c3CCN1C2=O (stereo not drawn) | 2.21 µM | 16.9 µM | 26.8 µM
54 | COc1ccc2[nH]c3c(c2c1)CCCN1C(=O)c2ccccc2N(C)C31 (stereo not drawn) | > 200 µM | > 200 µM | > 200 µM
55 | CN1c2ccsc2C(=O)N2CCc3c([nH]c4ccc(O)cc34)C21 (stereo not drawn) | 23.6 µM | > 200 µM | 15.8 µM
56 | CC(=O)Nc1ccc2c(c1)C(=O)N1CCc3c([nH]c4ccccc34)C1O2 (stereo not drawn) | 5.8 µM | 19.6 µM | 20.1 µM
57 | O=C1c2cc(I)cc(I)c2OC2c3[nH]c4ccccc4c3CCN12 (stereo not drawn) | 24.4 µM | > 200 µM | > 200 µM
58 | O=C1c2ccc(Cl)cc2OC2c3[nH]c4ccccc4c3CCN12 (stereo not drawn) | 40.6 µM | 34.2 µM | 58.6 µM
59 | CC(C)CNc1ccc2c(c1)C(=O)N1CCc3c([nH]c4ccccc34)C1O2 (stereo not drawn) | 5.3 µM | > 200 µM | > 200 µM
60 | COc1ccc2[nH]c3c(c2c1)CCN1C(=O)c2ccc4ccccc4c2OC31 (stereo not drawn) | > 200 µM | > 200 µM | > 200 µM
61 | O=C1c2ccccc2OC2c3[nH]c4ccccc4c3CCN12 (stereo not drawn) | 3.1 µM | 3 µM | 2.4 µM
62 | COc1ccc2[nH]c3c(c2c1)CCN1C(=O)c2ccccc2C31O (stereo not drawn) | > 200 µM | > 200 µM | > 200 µM
63 | Cc1cccc2c1C(=O)N1CCc3c([nH]c4ccccc34)C1O2 (stereo not drawn) | 38.1 µM | > 200 µM | > 200 µM
64 | COc1ccc2[nH]c3c(c2c1)CCN1C(=O)c2ccccc2OC31 (stereo not drawn) | > 200 µM | > 200 µM | > 200 µM
65 | O=C1c2cc(Br)ccc2OC2c3[nH]c4ccc(O)cc4c3CCN12 (stereo not drawn) | < 0.003 µM | < 0.003 µM | 0.06 µM
66 | COc1ccc2[nH]c3c(c2c1)CCN1C(=O)c2c(ccn2C)N(C)C31 (stereo not drawn) | 54.1 µM | 42 µM | 28.5 µM
67 | S=C1c2ccccc2OC2c3[nH]c4ccccc4c3CCN12 (stereo not drawn) | 5.6 µM | 4.8 µM | 7.7 µM
68 | COc1ccc2oc3c(c2c1)CCCN1C(=O)c2ccccc2N(C)C31 (stereo not drawn) | 5.3 µM | 28.4 µM | 6.2 µM
69 | COc1ccc2c(c1)C(=O)N1CCc3c([nH]c4ccc(OC)cc34)C1O2 (stereo not drawn) | 23.7 µM | 10.1 µM | 9.5 µM
70 | COc1ccc2[nH]c3c(c2c1)CCN1C(=O)c2cccc(OC)c2OC31 (stereo not drawn) | 52.7 µM | 80.1 µM | > 200 µM
71 | COc1ccc2[nH]c3c(c2c1)CCN1C(=O)c2ccccc2[C@H]31 | 30.9 µM | > 200 µM | 193 µM
